Measured values: patent US20250058002A1, “ELECTROCHEMICAL INHIBITION OF REDOX ACTIVE BACTERIA AND RELATED DEVICES, METHODS AND SYSTEMS” (priority 2023, published 2025)

Test system: not listed separately
Test: Midpoint potential E1/2 by voltammetry vs Ag/AgCl (3M KCl)
Type: physicochemical
Conditions: pH 7; Example 15 table
Protocol: The purified redox-active molecule can be dissolved in aqueous solution at appropriate concentration in the presence of supporting electrolyte and buffer to select the pH of measurement. For example, the redox-active molecule can be dissolved in 10 μM-10 mM concentrations in distilled, deionized water (DDW). The supporting electrolyte can be a salt such as NaCl or KCl at 0.01-0.5 M concentrations, for example, dissolved in DDW. The buffer can be 10 mM ammonium acetate/3-(N-morpholino)propanesulfonic acid at pH 7, or phosphate-buffered saline (PBS) at pH 7.4, or sodium acetate buffer at pH 5, or di-sodium hydrogen phosphate/potassium dihydrogen phosphate at pH 9, or boric acid/citric acid/trisodium phosphate for a wide range of pH values, for example.
Voltammetric methods are then used to characterize the electrochemical behavior of the redox-active molecule in such solution, with a potentiostat such as a Gamry PC4-300, using a three-electrode setup with working electrode (glassy carbon, or platinum, or gold), counter electrode (platinum wire) and reference electrode (Ag/AgCl (3M KCl), or SCE, or NHE; values are reported relative to Ag/AgCl (3M KCl) which has potential +197 mV vs. NHE at 298K).
For example, cyclic voltammetry may be used. In a cyclic voltammetry experiment phenazines will show a peak on the cathodic sweep (denoted Epc) corresponding to the reduction of the redox molecule.
The reverse, anodic sweep will show a peak (denoted Epa) corresponding to the re-oxidation of the redox molecule. If the electrode reaction is diffusion-controlled and reversible, the cathodic and anodic peak currents will be equal in area, and the mid-point between these peaks may be taken as the formal reduction potential of the redox molecule under the experimental conditions used. This value can interchangeably be referred to as the “midpoint potential” or “mid-peak potential”, denoted E1/2.
PYO was purified from aerobic bacterial cultures and was dissolved in 0.1 M KCl aqueous solution buffered with 10 mM ammonium acetate-3-(N-morpholino)propanesulfonic acid (5 mM each, pH 7) to yield a stock solution concentration of 829 μM PYO. Electrochemical measurements were performed with a Gamry PC4-300 potentiostat. A stationary gold disk electrode (BASi) was used as the working electrode, an Ag/AgCl electrode (RE-51, BASi) as the reference, and a straight platinum wire (BASi) was the counter electrode. Scans were performed between 20 and 500 mV/s in the potential range of around E1/2 (+/−300 mV), at 298 K.
As described in en.wikipedia.org/wiki/Nernst_equation, the Nernst equation relates E1/2 measured at pH 7 to the E1/2 at a different pH by:
[formula] • where E1/2 is in V • h is the number of protons transferred in the electrochemical reaction • e is the number of electrons transferred in the electrochemical reaction

Compound	E1/2 (vs. Ag/AgCl (3M KCl))/mV [mV]
O=C1c2ccc(S(=O)(=O)O)cc2C(=O)C2C=CC(S(=O)(=O)O)=CC12 (stereo not drawn)	−381
NC1=C(C(=O)O)C(=O)c2ccccc2C1=O [drawing 45]	−250

Test system: not given
Test: not given
Conditions: vs NHE at pH7; cited from earlier work

Compound	Redox potentials E (mV)
O=C1c2ccc(S(=O)(=O)O)cc2C(=O)c2ccc(S(=O)(=O)O)cc21 [2,6-AQDS]	−184 mV
NC1=C(C(=O)O)C(=O)c2ccccc2C1=O [ACNQ ox/red, ACNQ]	−71 mV
O=C1CCC(=O)N(O)CCC(O)CNC(=O)CCC(=O)N(O)CCC(O)CN1 (stereo not drawn) [Alcaligin]	−588 mV
Menaquinone [Menaquinone ox/red]	−75 mV
O2/H2O	+820 mV
Ubiquinone [Ubiquinone ox/red]	+113 mV

Test system: PA14
Test: Redox cycles over 7 days and support of survival (Table 4)
Type: cell-based, P. aeruginosa
Conditions: not given
Description: (§1) Phenazines and other redox active compound in the sense of the disclosure can be further characterized by various electrical properties such as a standard electrode potential E° vs. NHE of −500 mV to 500 mV and other properties such as number of redox cycle over a certain period of time (e.g. number of days) as ability to support survival and susceptibility to reduction by enzymes and/or bacterial strains.

Compound	Support survival?
O=C1c2ccc(S(=O)(=O)O)cc2C(=O)c2ccc(S(=O)(=O)O)cc21 [2,6-AQDS]	No
O=C(O)Cc1cc(O)ccc1O [Homogentisic acid (HMA), Homogentisic acid]	No
CN(C)c1ccc2nc3ccc(=[N+](C)C)cc-3sc2c1 [Methylene blue (MB), Methylene blue]	No
C[n+]1ccc(-c2cc[n+](C)cc2)cc1 [Paraquat]	No

Same assay, conditions: over 7 days

Compound	# of Redox cycles over 7 days
O=C1c2ccc(S(=O)(=O)O)cc2C(=O)c2ccc(S(=O)(=O)O)cc21 [2,6-AQDS]	No cycle
O=C(O)Cc1cc(O)ccc1O [Homogentisic acid (HMA), Homogentisic acid]	No cycle
CN(C)c1ccc2nc3ccc(=[N+](C)C)cc-3sc2c1 [Methylene blue (MB), Methylene blue]	3
C[n+]1ccc(-c2cc[n+](C)cc2)cc1 [Paraquat]	No cycle

Test system: not listed separately
Test: Standard electrode potential E0' vs NHE of exemplary redox-active compounds (Table 4)
Type: physicochemical
Conditions: measured in aqueous solution at pH 7 in this study (footnote b)
Description: as §1

Compound	E0' (vs. NHE) (mV)
O=C(O)Cc1cc(O)ccc1O [Homogentisic acid (HMA), Homogentisic acid]	+306^b mV
CN(C)c1ccc2nc3ccc(=[N+](C)C)cc-3sc2c1 [Methylene blue (MB), Methylene blue]	0 mV

Test system: not given
Test: not given
Conditions: oxidized form; literature values (footnotes a, c, d); cited from earlier work

Compound	E0' (vs. NHE) (mV)
O=C1c2ccc(S(=O)(=O)O)cc2C(=O)c2ccc(S(=O)(=O)O)cc21 [2,6-AQDS]	−184^d mV
CN(C)c1ccc2nc3ccc(=[N+](C)C)cc-3sc2c1 [Methylene blue (MB), Methylene blue]	+11 mV
C[n+]1ccc(-c2cc[n+](C)cc2)cc1 [Paraquat]	−446^c mV

Test system: PA14
Test: Reduction of redox-active compound by PA14 (Table 4)
Type: cell-based, P. aeruginosa
Conditions: not given
Description: as §1

Compound	Reduction by PA14?
O=C1c2ccc(S(=O)(=O)O)cc2C(=O)c2ccc(S(=O)(=O)O)cc21 [2,6-AQDS]	Yes (very slowly)
CN(C)c1ccc2nc3ccc(=[N+](C)C)cc-3sc2c1 [Methylene blue (MB), Methylene blue]	Yes
C[n+]1ccc(-c2cc[n+](C)cc2)cc1 [Paraquat]	No
